Results as given in US7629366B2, “Aminoalcohol derivatives” (Fujisawa Pharmaceutical Co., Ltd., priority 2002, dated 2009).

System: increase in intravesical pressure induced by carbachol in anesthetized dog
Test: Effect on the increase in intravesical pressure induced by carbachol in anesthetized dog
Format: in vivo
Details: 0.032 mg/kg intravenously, 30 minutes before carbachol (1.8 μg/kg); female Beagle dogs under halothane anesthesia
Description: Effect on the increase in intravesical pressure induced by carbachol in anesthetized dog
Female Beagle dogs weighing 8.0-15.0 kg were fasted for 24 hours and maintained under halothane anesthesia. A 12F Foley catheter was lubricated with water soluble jelly, inserted into the urethral orifice and advanced approximately 10 cm until the balloon tip was placed well inside the bladder. The balloon was then inflated with 5 ml of room air and catheter slowly withdrawn just part the first resistance that is felt at the bladder neck. Urine was completely drained out through the catheter, and 30 ml of biological saline was infused. The catheter was connected to pressure transducer, and intravesical pressure (IVP) was continuously recorded. The test compound was administered intravenously at 30 minutes before the administration of carbachol (1.8 μg/kg). Percent inhibition of IVP increase by test compound was calculated by dividing IVPa (IVP increase induced by carbachol after test compound administration) by IVPb (IVP increase induced by carbachol just before test compound administration).

Compound	Percent inhibition of IVP increase [%]
Cc1c(C(=O)O)ccc(-c2ccc(CCNC[C@H](O)c3cccc(Cl)c3)cc2)c1C.Cl [Test Compound (2), 4′-[2-[[(2R)-2-(3-Chlorophenyl)-2-hydroxyethyl]amino]-ethyl]-2,3-dimethyl-1,1′-biphenyl-4-carboxylic acid hydrochloride]	91
Cc1cc(C(=O)O)ccc1-c1ccc(CCNC[C@H](O)c2cccnc2)cc1.Cl.Cl [Test Compound (3), 4′-[2-[[(2R)-2-Hydroxy-2-(3-pyridyl)ethyl]amino]ethyl]-2-methyl-1,1′-biphenyl-4-carboxylic acid dihydrochloride]	86
COc1cc(-c2ccc(C[C@@H](C)NC[C@H](O)c3ccccc3)cc2)ccc1C(=O)O.Cl [Test Compound (1), 4′-[(2R)-2-[[(2R)-2-Phenyl-2-hydroxyethyl]amino]-propyl]-3-methoxy-1,1′-biphenyl-4-carboxylic acid hydrochloride]	93
COc1cc(-c2ccc(C[C@@H](C)NC[C@H](O)c3cccnc3)cc2)ccc1C(=O)O.Cl.Cl [Test Compound (4), 4′-[(2R)-2-[[(2R)-2-Hydroxy-2-(3-pyridyl)ethyl]amino]-propyl]-3-methoxy-1,1′-biphenyl-4-carboxylic acid dihydrochloride]	96
